Earlier results on one substance are cited in patent US20230390541A1, “Dermal Patch for Transdermal Modulation of Ghrelin Pathway” (Resarcion, LLC, priority 2019, published 2023).

The conditions of the data set: shortest structural analog among truncated ghrelin analogs.

As for Ser^3(octanoyl)-ghrelin (1-5), the “activity relative to native ghrelin” value is given as “activity similar to the native hormone”.
